From publication PMC3796470, “BdorCSP2 Is Important for Antifeed and Oviposition-Deterring Activities Induced by Rhodojaponin-III against Bactrocera dorsalis” (PLoS ONE, 2013) come the findings set out here.

Usually Kd stands for a measure of binding affinity in units of concentration. A lower Kd goes with a tighter complex.

In assay [1] the target is T1, BdorCSP2 (Bactrocera dorsalis, UniProt S5TKX2).
T1 construct: gene CSP2; mature BdorCSP2 (signal peptide removed), recombinant from E. coli BL21 (DE3), His-tag-removed; GenBank KC897022
T1 sequence (S5TKX2 23-156): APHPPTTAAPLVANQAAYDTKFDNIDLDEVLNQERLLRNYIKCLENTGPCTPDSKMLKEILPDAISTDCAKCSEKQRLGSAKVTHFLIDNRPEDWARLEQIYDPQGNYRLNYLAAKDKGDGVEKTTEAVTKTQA
Nature of the assay: fluorescent probe titration with Scatchard analysis. The class given is binding.

For assay [2], the target named is T1, BdorCSP2. As to the kind of experiment: competitive fluorescence binding assay, displacement of 1-NPN.

Turning to `c1ccc(Nc2cccc3ccccc23)cc1` [N-phenyl-1-naphthylamine], the Kd in assay [1] was determined as 2.71 µM. In turn, `CC1(C)[C@H]2O[C@H]2[C@H]2[C@](C)(O)[C@@H]3CC[C@@H]4[C@@H](O)[C@@]3(C[C@@H](O)[C@@]21O)C[C@@]4(C)O` [Rhodojaponin-III] had a Kd in assay [2] of 34.6 µM.
